Results as given in patent US9981969B2, “Imidazole derivatives and methods of use thereof for improving the pharmacokinetics of a drug” (MERCK SHARP & DOHME CORP., priority 2013, dated 2018).

How the values were obtained:
[1] = target: T1, human CYP11B1 (Homo sapiens, UniProt P15538); experiment: IC50 vs CYP11B1 by measurement of cortisol synthesis in V79 cells; type: cell-based; conditions: V79 cells expressing human CYP11B1, 1500 nM RSS, cortisol HTRF
T1 construct: expressed in transfected cells
T1 sequence (P15538 25-503): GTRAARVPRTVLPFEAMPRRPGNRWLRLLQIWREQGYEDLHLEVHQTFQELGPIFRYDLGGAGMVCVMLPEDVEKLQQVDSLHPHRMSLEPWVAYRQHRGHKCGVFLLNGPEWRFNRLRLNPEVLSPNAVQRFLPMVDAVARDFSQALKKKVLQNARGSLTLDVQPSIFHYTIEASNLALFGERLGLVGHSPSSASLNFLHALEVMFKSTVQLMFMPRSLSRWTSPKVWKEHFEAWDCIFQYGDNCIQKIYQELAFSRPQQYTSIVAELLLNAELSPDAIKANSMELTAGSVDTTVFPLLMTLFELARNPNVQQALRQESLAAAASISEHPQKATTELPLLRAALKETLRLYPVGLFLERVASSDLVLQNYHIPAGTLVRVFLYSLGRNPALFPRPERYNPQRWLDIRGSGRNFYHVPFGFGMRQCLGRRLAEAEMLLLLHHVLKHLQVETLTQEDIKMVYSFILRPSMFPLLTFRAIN
Description: (§1) This assay was performed in a standard 384-well plate design using cultured V79 cells stably expressing human CYP11B1 or human CYP11B2. Test compounds at 10 concentrations (for example, 10000, 3333.3, 1111.1, 370.4, 123.5, 41.2, 13.7, 4.6, 1.5 and 0.5 nM) were added in 384-well plate after the cell-seeding procedure. The incubation substrate contains 1500 nM RSS for CYP11B1 assay/750 nM DOC for CYP11B2 assay. The Cortisol/Aldosterone production of cell culture supernatant was determined by Cortisol/Aldosterone HTRF kit after for about 15 hours incubation at RT (protect from light). IC50 (nM) values were calculated from the percent inhibition observed for each test compound at 10 concentrations.
(§2) The assay plate was read using Envision (Perkin Elmer, Waltham, Mass.) at 665 nm and 590 nm (using Filter Barcode of 217#, 205#; Mirror Barcode of 446#).
(§3) Data are analyzed using Assay Data Analyzer. All ratio data (665 nm/590 nm) are back calculated according to the standard curve, resulting in Cortisol/Aldosterone concentrations. IC50 (nM) values are reported as the Inflection Point (IP) of a four parameter fit of the titration data.
(§4) The following equation was used to calculate the % inhibition: % Activity=100×{1−(Sample_back calculated Cortisol/Aldosterone concentration−LC_back calculated Cortisol/Aldosterone concentration)/(HC_back calculated Cortisol/Aldosterone concentration−LC_back calculated Cortisol/Aldosterone concentration)} Curve Fitting: Four Parameter Logistic: […]

[2] = target: T2, CYP2D6 (Homo sapiens, UniProt P10635); experiment: Cocktail assay for CYPs in human liver microsomes, dextromethorphan O-demethylation (2D6); type: biochemical; conditions: 5 μM dextromethorphan, 10 min at 37° C.
T2 construct: 0.1 mg/mL protein human liver microsomes (BD Gentest); tissue BD Gentest; host or cells: human liver microsomes
T2 sequence (P10635 whole entry): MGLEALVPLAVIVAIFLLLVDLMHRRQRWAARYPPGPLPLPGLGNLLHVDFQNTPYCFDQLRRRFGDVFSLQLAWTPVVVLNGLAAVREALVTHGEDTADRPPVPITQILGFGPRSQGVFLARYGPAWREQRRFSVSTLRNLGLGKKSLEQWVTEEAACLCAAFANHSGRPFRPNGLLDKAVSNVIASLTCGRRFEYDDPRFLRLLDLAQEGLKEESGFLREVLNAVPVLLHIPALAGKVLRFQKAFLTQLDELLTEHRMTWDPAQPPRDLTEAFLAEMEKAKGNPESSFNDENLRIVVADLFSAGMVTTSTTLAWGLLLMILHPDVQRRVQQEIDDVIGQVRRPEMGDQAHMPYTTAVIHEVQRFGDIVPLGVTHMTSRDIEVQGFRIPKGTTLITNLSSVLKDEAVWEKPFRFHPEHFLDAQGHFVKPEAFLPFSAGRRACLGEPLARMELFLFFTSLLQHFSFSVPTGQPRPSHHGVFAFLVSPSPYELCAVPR
Description: (§5) This assay was performed in a standard 96-well plate design. IC50 values were calculated from the percent inhibition observed for each test compound at 6 concentrations (for example, 0.0032, 0.016, 0.08, 0.4, 2 and 10 μM). The incubation substrate mix contains 10 μM phenacetin (1A2), 5 μM diclofenac (2C9), 30 μM mephenytoin (2C19), 5 μM dextromethorphan (2D6) and 2 μM midazolam (3A4), 0.1 mg/mL protein human liver microsomes (BD Gentest), 1 mM NAPDH, 3.3 mM MgCl2 and 100 mM potassium phosphate buffer (pH 7.4). The production of the metabolite of each probe substrate was determined after incubation for 10 min at 37° C. Quantitation of the metabolite peak area ratio against an internal standard (tolbutamide) was determined by LC/MS/MS analysis following acetonitrile treatment of the incubations.
(§6) Samples were analyzed in the MRM mode with a SCIEX API-4000 mass spectrometer (Applied Biosystems, Foster City, Calif.), with a Shimadzu LC-20 AD pump (Shimadzu corporation, Kyoto, JP) and a CTC PAL autosampler (Agilent Technologies, Switzerland). A Phenomenex, Luna, 5 μm, 100A, 2.00×30 mm HPLC column was used for the separation. The mobile phases were: (A) 0.1% formic acid in water and (B) 0.1% formic acid in acetonitrile. The binary gradient was as follows. AutoSampler: CTC PAL
(§7) The peak area ratio of the analyte to the internal standard was used to quantify the metabolite. The values of peak area ratios in the presence of test compound were compared to those of maximum or minimum controls and were expressed as % inhibition by interpolating between the maximum and minimum peak area ratios. Incubations with no inhibitor were defined as the maxima. The following equation was used to calculate the % inhibition: [1−[(X−Low control)/(High control−Low control)]]*100 For the IC50 calculation, SigmaPlot was used to plot the mean % inhibition versus the test compound concentrations and for non-linear regression analysis of the data. Depending on the range of data points defining the inhibition curve, the data may have been fit to the 4-parameter logistic equation.

[3] = target: T3, CYP2C9 (Homo sapiens, UniProt P11712); experiment: Cocktail assay for CYPs in human liver microsomes, diclofenac 4′-hydroxylation (2C9); type: biochemical; conditions: 5 μM diclofenac, 10 min at 37° C.
T3 construct: 0.1 mg/mL protein human liver microsomes (BD Gentest); tissue BD Gentest; host or cells: human liver microsomes
T3 sequence (P11712 whole entry): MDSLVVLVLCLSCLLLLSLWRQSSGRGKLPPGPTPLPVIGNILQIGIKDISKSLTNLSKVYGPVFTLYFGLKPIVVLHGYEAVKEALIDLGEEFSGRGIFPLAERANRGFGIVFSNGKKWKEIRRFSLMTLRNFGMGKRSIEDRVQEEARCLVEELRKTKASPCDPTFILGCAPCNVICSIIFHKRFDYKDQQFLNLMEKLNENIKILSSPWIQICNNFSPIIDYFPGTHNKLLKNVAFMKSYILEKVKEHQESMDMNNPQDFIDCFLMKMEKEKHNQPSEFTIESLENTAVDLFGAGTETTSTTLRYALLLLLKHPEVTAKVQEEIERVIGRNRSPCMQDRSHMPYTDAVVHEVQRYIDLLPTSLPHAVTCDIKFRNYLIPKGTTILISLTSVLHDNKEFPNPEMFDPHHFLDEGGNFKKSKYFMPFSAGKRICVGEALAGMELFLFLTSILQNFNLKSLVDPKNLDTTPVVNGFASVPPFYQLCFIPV
Description: as §5, §6, §7

[4] = target: T4, CYP1A2 (Homo sapiens, UniProt P05177); experiment: Cocktail assay for CYPs in human liver microsomes, phenacetin O-deethylation (1A2); type: biochemical; conditions: 10 μM phenacetin, 10 min at 37° C.
T4 construct: 0.1 mg/mL protein human liver microsomes (BD Gentest); tissue BD Gentest; host or cells: human liver microsomes
T4 sequence (P05177 1-516): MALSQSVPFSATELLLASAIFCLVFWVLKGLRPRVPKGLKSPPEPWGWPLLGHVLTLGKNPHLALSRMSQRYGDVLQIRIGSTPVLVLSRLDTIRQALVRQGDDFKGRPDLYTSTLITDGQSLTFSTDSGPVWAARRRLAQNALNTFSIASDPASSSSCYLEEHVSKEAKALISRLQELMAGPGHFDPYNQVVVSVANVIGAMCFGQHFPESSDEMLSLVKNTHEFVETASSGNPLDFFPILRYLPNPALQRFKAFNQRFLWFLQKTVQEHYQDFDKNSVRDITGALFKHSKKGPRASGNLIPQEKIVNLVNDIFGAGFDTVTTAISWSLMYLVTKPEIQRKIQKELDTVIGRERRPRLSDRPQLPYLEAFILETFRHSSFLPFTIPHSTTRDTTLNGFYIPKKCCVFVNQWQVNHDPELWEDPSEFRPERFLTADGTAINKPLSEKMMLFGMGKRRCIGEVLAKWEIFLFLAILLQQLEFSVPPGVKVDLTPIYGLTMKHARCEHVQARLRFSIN
Description: as §5, §6, §7

[5] = target: T5, CYP2C19 (Homo sapiens, UniProt P33261); experiment: Cocktail assay for CYPs in human liver microsomes, mephenytoin 4′-hydroxylation (2C19); type: biochemical; conditions: 30 μM mephenytoin, 10 min at 37° C.
T5 construct: 0.1 mg/mL protein human liver microsomes (BD Gentest); tissue BD Gentest; host or cells: human liver microsomes
T5 sequence (P33261 whole entry): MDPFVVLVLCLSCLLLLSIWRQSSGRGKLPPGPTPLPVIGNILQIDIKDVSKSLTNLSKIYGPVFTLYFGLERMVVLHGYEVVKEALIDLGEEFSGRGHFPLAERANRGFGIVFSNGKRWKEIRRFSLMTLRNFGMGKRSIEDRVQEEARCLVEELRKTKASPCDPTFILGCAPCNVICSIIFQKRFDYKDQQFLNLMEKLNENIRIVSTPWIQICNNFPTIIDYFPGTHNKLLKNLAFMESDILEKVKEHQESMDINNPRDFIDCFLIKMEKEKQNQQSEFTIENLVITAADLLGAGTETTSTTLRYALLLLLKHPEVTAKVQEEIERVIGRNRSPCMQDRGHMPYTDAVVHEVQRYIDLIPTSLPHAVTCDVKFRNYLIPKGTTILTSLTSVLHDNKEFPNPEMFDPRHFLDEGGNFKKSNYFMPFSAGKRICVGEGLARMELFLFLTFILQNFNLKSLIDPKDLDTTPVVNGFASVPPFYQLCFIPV
Description: as §5, §6, §7

[6] = target: T6, human CYP11B2 (Homo sapiens, UniProt P19099); experiment: IC50 vs CYP11B2 by measurement of aldosterone synthesis in V79 cells; type: cell-based; conditions: V79 cells expressing human CYP11B2, 750 nM DOC, aldosterone HTRF
T6 construct: expressed in transfected cells
T6 sequence (P19099 25-503): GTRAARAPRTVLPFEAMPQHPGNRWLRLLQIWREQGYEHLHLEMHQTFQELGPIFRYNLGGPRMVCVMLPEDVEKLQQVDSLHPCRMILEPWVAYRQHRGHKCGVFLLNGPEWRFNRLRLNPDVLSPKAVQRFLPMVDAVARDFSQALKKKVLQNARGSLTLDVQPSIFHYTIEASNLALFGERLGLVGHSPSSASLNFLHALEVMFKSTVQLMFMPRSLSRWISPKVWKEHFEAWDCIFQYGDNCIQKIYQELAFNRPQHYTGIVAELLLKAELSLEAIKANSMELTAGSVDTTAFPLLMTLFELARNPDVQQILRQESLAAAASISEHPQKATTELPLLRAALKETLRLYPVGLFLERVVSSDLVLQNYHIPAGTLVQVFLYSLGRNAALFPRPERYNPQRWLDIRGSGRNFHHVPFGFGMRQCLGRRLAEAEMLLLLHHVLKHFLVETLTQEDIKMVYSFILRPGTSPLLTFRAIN
Description: as §1, §2, §3, §4

[7] = target: T7, CYP3A4 (Homo sapiens, UniProt P08684); experiment: Cocktail assay for CYPs in human liver microsomes, midazolam 1′-hydroxylation (3A4); type: biochemical; conditions: 2 μM midazolam, 10 min at 37° C.
T7 construct: 0.1 mg/mL protein human liver microsomes (BD Gentest); tissue BD Gentest; host or cells: human liver microsomes
T7 sequence (P08684 whole entry): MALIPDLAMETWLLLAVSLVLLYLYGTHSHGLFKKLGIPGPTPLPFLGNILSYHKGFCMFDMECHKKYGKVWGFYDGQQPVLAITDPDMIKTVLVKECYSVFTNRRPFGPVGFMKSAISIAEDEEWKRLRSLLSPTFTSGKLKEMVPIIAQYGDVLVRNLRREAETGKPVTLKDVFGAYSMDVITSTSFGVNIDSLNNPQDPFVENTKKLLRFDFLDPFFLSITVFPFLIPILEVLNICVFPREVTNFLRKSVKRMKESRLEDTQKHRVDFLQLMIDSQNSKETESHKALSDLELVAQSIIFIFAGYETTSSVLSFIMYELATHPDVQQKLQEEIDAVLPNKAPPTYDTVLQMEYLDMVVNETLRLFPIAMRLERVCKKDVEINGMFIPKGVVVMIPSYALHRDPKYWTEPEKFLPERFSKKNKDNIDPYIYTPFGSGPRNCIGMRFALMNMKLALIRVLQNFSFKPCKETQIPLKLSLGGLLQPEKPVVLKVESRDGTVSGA
Description: as §5, §6, §7

Row | Structure (SMILES) | IC50 [1] [µM] | IC50 [2] [µM] | IC50 [3] [µM] | IC50 [4] [µM] | IC50 [5] [µM] | IC50 [6] [µM] | IC50 [7] [µM]
1 | CO[C@@H]1CN(C2CCN(C(=O)c3cncn3[C@@H](C)c3ccccc3-c3ccc(F)cc3)CC2)C[C@H]1O [Compound 23] | 26.3 | 9.72 | > 10 | > 10 | > 10 | > 50 | 0.0034
2 | C[C@@H](c1ccccc1-c1ccc(F)cc1)n1cncc1C(=O)N1CCC(NC2CCC(O)CC2)CC1 (stereo partly drawn) [Compound 25] | > 50 | 5.85 | > 10 | > 10 | > 10 | > 50 | 0.0092
3 | C[C@@H](c1ccccc1-c1ccc(F)cc1)n1cncc1C(=O)N1CCC(N2CCn3c(nnc3C(F)(F)F)C2)CC1 [Compound 26] | 14.6 | ≥ 10 | > 10 | > 10 | 6.29 | > 50 | 0.0064
4 | C[C@@H](c1ccccc1-c1ccc(F)cc1)n1cncc1C(=O)N1CCC(N2CCn3ncnc3C2)CC1 [Compound 27] | 11.1 | > 10 | > 10 | > 10 | > 10 | 23.9 | 0.0058
5 | C[C@@H](c1ccccc1-c1ccc(F)cc1)n1cncc1C(=O)N1CCC(N2CCc3nccnc3C2)CC1 [Compound 28] | 14.9 | > 10 | > 10 | > 10 | > 10 | > 50 | 0.0054
6 | C[C@@H](c1ccccc1-c1ccc(F)cc1)n1cncc1C(=O)N1CC[C@@H](N2CCOCC2)[C@@H](F)C1 [Compound 29] | 22 | 6.22 | > 10 | > 10 | > 10 | > 50 | 0.0063
7 | C[C@@H](c1ccccc1-c1ccc(F)cc1)n1cncc1C(=O)N1CC[C@@H](N2CCNC(=O)C2)[C@@H](F)C1 [Compound 30] | > 50 | > 10 | > 10 | > 10 | > 10 | 41.5 | 0.0058
8 | C[C@H]1CN(C(=O)c2cncn2[C@@H](C)c2ccccc2-c2ccc(F)cc2)CC[C@H]1N1CCNC(=O)C1 [Compound 31] | 28.1 | 9.6 | > 10 | > 10 | > 10 | > 50 | 0.0097

Other lines, results leading:

Row | IC50 [1] [µM] | IC50 [2] [µM] | IC50 [3] [µM] | IC50 [4] [µM] | IC50 [5] [µM] | IC50 [6] [µM] | IC50 [7] [µM] | Structure (SMILES)
9 | 21.4 | 9.75 | > 10 | > 10 | > 10 | > 50 | 0.004 | CO[C@H]1CN(C2CCN(C(=O)c3cncn3[C@@H](C)c3ccccc3-c3ccc(F)cc3)CC2)C[C@@H]1O [Compound 22]
10 | > 50 | > 10 | > 10 | > 10 | > 10 | > 50 | 0.0057 | C[C@@H](c1ccccc1-c1ccc(F)cc1)n1cncc1C(=O)N1CCC(NC2COC[C@H]2O)CC1 (stereo partly drawn) [Compound 24]
11 | 22.5 | 8.38 | > 10 | > 10 | > 10 | > 50 | 0.0042 | C[C@H]1CN(C(=O)c2cncn2[C@@H](C)c2ccccc2-c2ccc(F)cc2)CC[C@H]1N1CC[C@@H](O)C1 [Compound 32]
12 | > 50 | 7.36 | > 10 | > 10 | > 10 | 23.6 | 0.0091 | CO[C@H]1CN(C(=O)c2cncn2[C@@H](C)c2ccccc2-c2ccc(F)cc2)CC[C@@H]1N1CCOC1=O [Compound 33]
